Measured values published in patent US6630583B1, “Antibiotics and methods of using the same” (priority 1998, dated 2003).

Columns and labels:
[1] = system: T4 strain (which encodes the T4 type Vex2 receptor); assay: Killing in vitro by synthetic R6 peptide; format: cell-based, pneumococcus; settings: synthetic R6 peptide added to a T4 strain
Source text: Clinical isolates were sequenced and a predominance of the R6 type amino acid sequence for the P27 peptide and of the Type 4 amino acid sequence for the Vex2 transporter was found. Out of fourteen isolates that were screened for Vex2, twelve had the Type 4 allele and only two had the R6 type allele. Eleven of the fourteen isolates were also screened for the P27 peptide. Nine were of the R6 type P27 allele (SEQ ID NO:60) and only two were of the Type 4 P27 allele. Thus, most of the isolates examined encoded an R6 type peptide (SEQ ID NO:60) and a T4 type Vex transporter. Importantly, two of the three tolerant strains encoded either the R6 type P27 peptide and the R6 type Vex2, or alternatively, the T4 type P27 peptide and the T4 type Vex2 receptor indicating an over-representation of these “matching” combinations in tolerant strains. Furthermore, isolates encoding a mix of R6/T4 type P27 peptide/Vex2 receptor were more susceptible to being killed in vitro, i.e. when the synthetic R6 peptide was added to a T4 strain (which encodes the T4 type Vex2 receptor) there was about 10-20% more bioactivity. Thus, genotype combinations comprising the R6 type P27 peptide and the R6 type Vex2 receptor or the T4 type P27 peptide and the T4 type Vex2 receptor may facilitate the tolerant phenotype. […]

vncS deficient mutant = assay: Antimicrobial peptide sensitivity test (growth, viability); format: cell-based, S. pneumoniae; settings: 0.1 mM P27
Experimental: (§1) FIGS. 15A-15C show the effect of the synthetic peptide homolog P27 on induced growth inhibition. […] Cultures were in the early exponential phase of growth (10^6 cfu/ml) when treated with the synthetic peptide, P27. FIG. 15B is a block diagram showing the viability counts (after one hour) of parent strain R6, and loss of function mutants vncS, vncR, vex1, vex3, following the addition of 0.1 mM P27. R6 without the peptide is the positive control. […] Experimental conditions are the same as in FIG. 15A.
(§2) Anitmicrobial peptide sensitivity tests: Survival and autolysis rates in the presence of antimicrobial peptides were determined by exposing the parent strain R6 and the vncS deficient mutant to different concentrations (0.05 to 200 μM) of P27 or cecropin B (American Peptide Company, Sunnyvale, Calif., USA) at an OD620nm 0.05 (10^6 cfu/ml). For the disk diffusion assay, agar plates were seeded with a lawn of S. pneumoniae, Enterococcus faecalis, E. faecium, Streptococcus agalactiae, S. pyogenes or Staphylococcus aureus. The plates were incubated for 12 hours at 37° C. with a disk soaked with the synthetic P27 (2 mM). The size of the halo was determined with a ruler.

[2] = system: antibiotic sensitive and LytA deficient bacteria; assay: Potentiation of the bactericidal effect of penicillin; format: cell-based, S. pneumoniae
parent strain R6 = assay: Antimicrobial peptide sensitivity test (growth, viability); format: cell-based, S. pneumoniae
Experimental: as §1
Cultures in the early exponential phase (10^6 cfu/ml) were treated with 0.1 mM P27 (*), 14-mer C-terminal peptide (□), 14-mer N-terminal peptide (Δ), a truncate lacking the 5C-terminal amino acids (◯) or an alternative peptide (⋄).
as §2
To determine the biological effect of P27, cultures of the parent strain R6 at an OD620nm of 0.1 were exposed to 0.1 mM of the synthetic peptide homolog P27 having the amino acid sequence of SEQ ID NO:44. […] This behavior is distinct from all other antibiotics described to date, which have a clear cut MIC.

[3] = system: autolysin deficient strain Lyt 4-4; assay: Growth and killing of autolysin deficient strain; format: cell-based, Streptococcus pneumoniae; settings: compared with R6
Experimental: The addition of the additives were made at time “0” hours. The strain of bacteria cultured was the Lyt-4-4 strain of Streptococcus pneumoniae which harbors a mutation leading to the loss of LytA activity. The peptide having the amino acid sequence of SEQ ID NO:2 was added as indicated at a concentration of 0.1 mM. Lyt-4-4 lacks active autolysin LytA and is therefore tolerant to penicillin treatment.
(§3) Cell growth curves were performed in the presence or absence of the test reagents as specified. In short, samples were prepared as follows: 1 ml of a pneumococcus culture was placed into 10 ml of prewarmed Semisynthetic (C+Y) medium. The optical density (OD) of the bacteria was monitored at 620 nm until an OD of approximately 0.1 was reached. At this point the test reagents were administered to the samples. The cells were cultured for up to 11 hours at 37° Celsius, and the OD at 620 nm was monitored every hour. A decrease in OD 620 is indicative of cell lysis, an increase is indicative of bacterial growth. No change in optical density indicates growth inhibition.
This antibacterial effect was also demonstrable in bacteria mutated so as to prevent autolysis by point mutation in the autolysin, as in the autolysin deficient strain Lyt 4-4. […]

[4] = system: different streptococcal species and Staphylococcus aureus; assay: Disk diffusion assay; format: cell-based; settings: disk soaked with synthetic P27 (2 mM)
Experimental: as §2

pneumococcal strain R6 = assay: Cell growth curves (OD 620 nm) and viability of R6 with peptide; format: cell-based, Streptococcus pneumoniae; settings: peptides at 100 μM added to growing R6 at OD 620 nm of 0.1
Experimental: as §3
To characterize the antibacterial activity of the peptide, pneumococcal strain R6 which is sensitive to penicillin was exposed to 0.1 mM of the peptide having the amino acid sequence of SEQ ID NO:2 at an optical density of 0.01 (bacterial density of 3×10^6 cfu/ml). Bacterial growth as measured by optical density was followed for 11 hours and viability was assessed by plating on blood agar. […] Four hours after the start of the experiment, the control strain grew from 3×10^6 to 1.2×10^7 cfu/ml. In contrast, four hours after addition of the peptide, the viable bacterial number decreased from 3×10^6 to 3×10^4 CFU/ml (10^3-fold lower than the control).
The fact that the peptide is active in the range below 1 μg/ml places the potency of its antibacterial effect in the same range as conventional antibiotics.
R6 with no peptide was the control and underwent exponential growth. […] This enhanced activity may result from an improvement in folding of the peptide or greater access to the bacterial target.

[5] = system: clinical pneumococcal isolates, which had no defect in the histidine/kinase VncS; assay: Growth of clinical isolates exposed to P27; format: cell-based, pneumococcus; settings: 0.1 mM of P27
Experimental: To investigate if the peptide P27 was not only capable of triggering different death pathways but was in fact, obligatory, a mutant deficient in P27 was investigated for antibiotic tolerance. […] This was confirmed by Western blot analysis. After addition of 10×MIC of vancomycin, the vexcp3 mutant underwent less than 2 log kill in 4 hours in contrast to 4 log kill of the wild type (FIG. 18A). […] To exclude the possibility that tolerance of the vexp3 mutant resulted from changes in either the expression or intrinsic activity of the autolysin LytA, Western blot analysis of LytA of the vexp3 mutant was performed. […] However, exogenous autolysin from vexp3 mutant was as efficient as that from wild type pneumococcus at reconstitution of lysis of the autolysin deficient strain Lyt-4-4 (FIG. 18C). […] To investigate if this phenomenon was restricted to mutations in VncS or rather to the antibiotic tolerant phenotype, clinical pneumococcal isolates, which had no defect in the histidine/kinase VncS (verified by sequencing), were exposed to 0.1 mM of P27. […] This supports the conclusion that VncS might function as a receptor for P27.

[6] = system: leucine deprived R6 cells; assay: Stringent response: lysis after leucine deprivation; format: cell-based, S. pneumoniae; settings: 10×MIC of penicillin or vancomycin, 0.2 mM P27, or combination
Experimental: P27 and the stringent response mechanism: The stringent response is believed to prevent the death pathway. To clarify the relationship of the stringent response to P27 activity, protein synthesis of R6 was inhibited by leucine deprivation and the effect of P27 was monitored (FIG. 19). […] The minimum concentration of penicillin required to cause penicillin dependent autolysis was equal to its MIC ([…]).

[7] = system: clinical pneumococcal isolate; assay: Rabbit model of pneumococcal meningitis; format: in vivo; settings: single intrathecal injection of 5 mg/kg, over 8 hours
Experimental: Rabbit model of pneumococcal meningitis: Pneumococcal meningitis was established according to a standard protocol [Tauber and Zwahlen, Methods Enzymol., 235:92-106 (1994)]. After withdrawal of CSF (300 μl), 10^4 bacteria of a vancomycin tolerant clinical serotype 23 isolate (RNET05) in 200 μl saline was introduced intracisternally in all animals. The rabbits in group one received no treatment, group two received vancomycin (60 mg/kg) six hours after infection: group three received a combination of vancomycin (60 mg/kg) and P27 (4 mg/kg) six hours after infection and group four received P27 (4 mg/kg) six hours after infection. At six hour intervals. CSF (200 μl) was withdrawn and tested for bacterial and leukocyte density.

Lyt 4-4 = assay: Loss of chain formation (morphology); format: cell-based, Streptococcus pneumoniae; settings: Lyt-4-4, P27 added
Source text: Loss of chain formation is a measure of antibacterial activity independent of autolysin.
Strains of pneumococcus that are tolerant to penicillin, such as Lyt 4-4, grow in long chains as compared to the diplococcal morphology of wild type pneumococci. FIG. 6A illustrates these chains, which extend to 30-50 bacteria in length.
P27 is capable of triggering different autolytic pathways: To identify the relationship between P27 and the activation of the autolysin LytA, the bactericidal effect of the peptide on the pneumococcal mutant Lyt-4-4 (which is deficient in the major autolysin), was investigated. […] Compared to the diplococcal morphology of wild type pneumococci, pneumococci lacking an active autolysin grow in long chains.

Sequence	more bioactivity (killing in vitro) [1]	growth inhibition or cell death (vncS deficient mutant)	effect on bactericidal effect of penicillin [2]	growth of R6 (parent strain R6; 0.1 mM P27, OD620nm of 0.1)	concentrations at which a substantial loss of viability was demonstrated (parent strain R6; R6)	inhibition of growth (parent strain R6; R6, 50 nM P27)	dose dependence of the extent of growth inhibition (parent strain R6; R6, 50 nM to 0.2 mM)	loss of viability (parent strain R6; R6, 0.1 mM P27)	inhibition of growth (parent strain R6; R6, 0.2 mM P27)	bactericidal effect on Lyt-4-4 [3]	antibacterial activity against other species [4]	ability to inhibit R6 growth (pneumococcal strain R6)	growth of clinical isolates [5]	lysis of R6 under leucine deprivation [6]	kill of a clinical pneumococcal isolate [7]	chain formation (Lyt 4-4)
MRKEFHNVLSSDQLLTDKRPARDYNRK (Streptococcus Pneumoniae) [synthetic R6 peptide]	10-20%															
MRKEFHNVLSSGQLLADKRPARDYNRK (listed as Streptococcus pneumoniae) [Peptide P27]		did not result in growth inhibition or even cell death	potentiates the bactericidal effect of penicillin	potent growth inhibition	greater than 0.05 mM	marginal	dose dependent	2 log units	complete growth arrest	still killed by P27 but not as efficiently as R6	did not show antibacterial activity	the same effect	clear reduction in growth	neither the addition of 10×the MIC of penicillin or vancomycin nor the addition of 0.2 mM P27 resulted in lysis	greater than 2 log	reversion of the chains to diplococci
